Columns and labels:
[1] = system: recombinant hMPV-GFP virus (strain C-85473); assay: hMPV replication in reconstituted human respiratory epithelia (GFP epifluorescence, RT-qPCR of N gene); assay type: cell-based, human metapneumovirus; conditions: MOI 0.1
Protocol: Viral replication in reconstituted human epithelial models (MucilAir® HAE, Epithelix) of nasal origin was studied on epithelia treated or not treated with diltiazem. To that end, (i) fluorescence light microscopy photos were used to evaluate the efficacy and progression of the infection and (ii) quantification of the viral genome by RTqPCR was performed, on the one hand at the apical pole of the epithelium (surface harvesting) to quantify the excretion of viral progeny, and on the other hand in the total lysates of epithelial cells at end point (day 5 post-infection) to quantify intracellular viral replication within the epithelium.
Human respiratory epithelia (Mucilair, Epithelix) were infected with a recombinant hMPV-GFP virus (strain C-85473) at an MOI of 0.1, then treated (via the basolateral medium of the epithelia) or not with 3 successive doses of diltiazem at 90 μM at D0, D1 and D3 post-infection (3 epithelia per condition).
Epifluorescence microscopy observations were performed on D4 post-infection to observe the impact of diltiazem treatment on viral replication (FIG. 7B).
On day 3 post-infection, a wash at the apical pole of the infected epithelium, treated or not, was performed in order to harvest the viral progeny produced. The genomic viral RNA was extracted and quantified by RT-qPCR (Biosystems™ PowerUp™ SYBR™ Green, Thermo Fisher Scientific) using a plasmid containing the HMPV N gene. The results are expressed in copies of the N gene/μg RNA extracted (FIG. 7C).
On day 5 post-infection, epithelial cells were harvested and lysed to extract total RNA. Total RNAs corresponding to the hMPV N viral gene were quantified by Rt-qPCR (Biosystems™ PowerUp™ SYBR™ Green, Thermo Fisher Scientific), using a range made from a plasmid containing the HMPV N gene. The results are expressed in copies of the N gene/μg RNA extracted (FIG. 7D).

[2] = system: genes encoding the type III interferons IFN-λ1, IFN-λ2 and IFN-λ3; assay: RNAseq expression of type III interferon genes and response genes, basolateral treatment of reconstituted human respiratory epithelia (MucilAir HAE); assay type: cell-based; conditions: 90 μM via basolateral pole, 3 days (3 administrations)
Protocol: (§1) Reconstituted human respiratory epithelia (MucilAir® HAE, Epithelix) maintained in culture at the air-liquid interface according to the instructions of the supplier Epithelix, were treated or not with diltiazem (90 μM) via their culture medium at their basolateral pole. The diltiazem treatment was repeated for 3 consecutive days (3 administrations in total).
Treated and untreated epithelia were then lysed with 150 μL of RLT buffer (Qiagen). […] Each library was amplified, quantified and indexed with primers provided in the ScriptSeq™ Index PCR Primers Kit (RSBC10948, Epicentre) and sequenced. Sequencing was conducted on an Illumina HiSeq 2500 system with a minimum requirement of 40 million “reads” sequenced per sample.
The demultiplexing of the data and the conversion of the BCL files resulting from the sequencing into FASTQ files were carried out using Illumina's bcl2fastq tool, in its version 1.8.4. […] A pseudo-alignment of the trimmed reads on the human genome (Homo Sapiens: GRCh38.p11) using the Kallisto software was performed, followed by a statistical analysis using the R 3.3.1 software and the EdgeR 3.14.0 package.
The differential in gene expression between epithelial cells treated with diltiazem and control epithelial cells was calculated using a linear model with a p-value correction by the Benjamini-Hochberg method. […]

[3] = system: IFN-λ2 (IFNL2) gene; assay: In vivo induction of IFN-λ2 (IFNL2) gene expression after intranasal instillation in BALB/c mice (RT-qPCR); conditions: 20 mg/kg intranasal, D0/D1/D2 or D0/D2/D4, sampled D5
[4] = system: human parainfluenza virus type 3 (strain C243 ATCC VR-93); assay: hPIV-3 replication in reconstituted human respiratory epithelia (cytopathic effect, TEER, TCID50 titration in LLC-MK2 cells); assay type: cell-based; conditions: MOI 0.1, 90 μM basolateral daily
Protocol: Reconstituted human respiratory epithelia were infected with human parainfluenza virus type 3 (strain C243 ATCC VR-93) at an MOI of 0.1, and treatment of the basolateral medium with 90 μM diltiazem was started 2 hours post-infection and continued daily for 4 consecutive days. Transepithelial electrical resistance (TEER), which reflects the integrity of the epithelium, was measured once daily from 48 h post-infection to 120 hours post-infection.
Apical infectious viral titers (TCID50/mL) were determined in LLC-MK2 cells from washings collected starting 48 h post-infection (hpi), and up to 120 hpi, as shown in FIG. 5A.

[5] = system: IFIT1, IFIT2, IFIT3, IF127, IFN-λ1, IFN-λ2, IF144L and IFITM1 genes; assay: RT-qPCR confirmation of induction of 8 genes associated with the type III interferon response; assay type: cell-based, human; conditions: 90 μM via basolateral pole, 3 days
[6] = system: respiratory syncytial virus (RSV); assay: RSV challenge infection in BALB/c mouse model, pulmonary viral titers by RT-qPCR (F gene); assay type: in vivo; conditions: BALB/c mice, 5×10^5 PFU RSV intranasally; 50 mg/kg per os, 5 treatments; day 5 post-infection
Protocol: FIG. 4D schematically represents the chronology of infection and treatment of the mice: • BALB/c mice were randomized into 3 groups of 5 individuals and then infected intranasally with 50 μL of a viral suspension containing 5×10^5 PFU of RSV (Day 0). Six hours before infection, the mice were treated with either 40 mg/kg intraperitoneal ribavirin (RSV RIB) or 50 mg/kg diltiazem peros (RSV DIL), or PBS (RSV PBS) as negative control. • The same treatments were repeated every 24 h, with a total of 3 treatments for ribavirin and 5 treatments for diltiazem or PBS. • On day 5 post-infection (D5, corresponding to the peak of viral replication), the mice in each group were euthanized and their lungs were aseptically recovered to measure their pulmonary viral titers by RTqPCR (F gene).
RT-qPCR quantification of the RSV viral genome copy number (quantifying the copies of the F gene) relative to the total amount of RNA extracted from the lungs at 5 days post-infection was performed, and the results are presented in FIG. 4E.
The following statistical tests were used: One-way ANOVA with Bonferroni post-test to compare each virus to the mock condition (PBS treatment). *p<0.05.

[7] = system: respiratory syncytial virus (Long strain, ATCC VR-26); assay: RSV replication in infected reconstituted human respiratory epithelia (RT-qPCR, F gene); assay type: cell-based; conditions: MOI 1; 90 μM basolateral, 4 administrations from 5 hpi; 6 days post-infection
Protocol: Reconstituted human respiratory epithelia (MucilAir® HAE, Epithelix) were maintained in culture at the air-liquid interface according to the instructions of the supplier Epithelix and were infected with respiratory syncytial virus (Long strain, ATCC VR-26) at a multiplicity of infection (MOI) 1, then treated or not with diltiazem (90 μM) via their culture medium at their basolateral pole. Diltiazem treatment was performed at 5 hours post-infection and then repeated for 3 consecutive days (4 administrations in total).
At 6 days post-infection, samples at the apical pole of treated and untreated infected epithelia, as well as the epithelia themselves, were lysed with 150 μL of RLT buffer (Qiagen). The process of the experiment is schematically represented in FIG. 4A.
Total RNA was extracted using the RNeasy Kit (Qiagen), according to the supplier's instructions, for quantification of viral genome copy number (F gene) by RT-qPCR at the apical pole, i.e. in the supernatant (FIG. 4B), as well as in the epithelia (FIG. 4C).

[8] = system: interferon lambda 1 (IL-29); assay: ELISA measurement of interferon lambda 1 (IL-29) secretion by reconstituted human respiratory epithelia; assay type: cell-based; conditions: ELISA after 72 h; 90 μM via basolateral pole, 3 administrations
Protocol: as §1, with “Epithelix) were” for “Epithelix)”, “Epithelix and” for “Epithelix,”
Secretion levels (pg/mL) of interferon lambda 1 (IL-29) at the apical and basolateral poles of human respiratory epithelia treated and untreated with diltiazem were measured by ELISA after 72 h of treatment according to the supplier's instructions (#3570-1H, Mabtech, Stockholm, Sweden).

SMILES: COc1ccc([C@@H]2Sc3ccccc3N(CCN(C)C)C(=O)[C@@H]2OC(C)=O)cc1 [diltiazem]
- fluorescence corresponding to viral expression of GFP (epifluorescence microscopy) ([1]; 90 μM basolateral at D0, D1, D3, D4 post-infection): very few fluorescent cells
- reduction of viral genome (N gene) in epithelia (total lysate) versus untreated epithelia ([1]; 90 μM basolateral at D0, D1, D3, day 5 post-infection): 4 log 10
- reduction of viral genome (N gene) in apical supernatants versus untreated epithelia ([1]; 90 μM basolateral, day 3 post-infection): 2 log 10
- expression of type III interferon response genes (IF144L, IFIT1, IFIT2, IFIT3, IFITM1, ISG15, MX1, MX2, OAS1, OAS2, OAS3, OASL, RSAD2, STAT1) [2]: significantly stimulates the expression
- IFN-λ2 (IFNL2) gene expression in nasal cavities relative to mock-treated mice [3]: activates the IFN III pathway
- transepithelial electrical resistance (TEER), integrity of the epithelium ([4]; 48 to 120 hpi): integrity appears to be more preserved
- cytopathic effects induced by hPIV-3 (microscopy) ([4]; 96 and 120 hpi): greater and easily visible microscopically in untreated reconstituted human respiratory epithelia, unlike those treated with diltiazem
- infectious viral titer at the apical surface at 96 h post-infection ([4]; untreated 10^7): 10^5 TCID50/mL
- expression of the IFIT1, IFIT2, IFIT3, IF127, IFN-λ1, IFN-λ2, IF144L and IFITM1 genes compared with untreated epithelia [5]: significant increase
- pulmonary viral titers (RSV F gene copies, RT-qPCR) compared with PBS control group and ribavirin-treated group [6]: significantly reduced pulmonary viral titers
- amount of RSV viral genome (F gene) in the culture supernatant (apical pole) compared with untreated epithelia [7]: much lower
- amount of RSV viral genome (F gene) in the epithelium compared with untreated epithelia [7]: much lower
- IFN-λ1 (IL-29) secretion at the apical pole [8]: very sharply increased
- IFN-λ1 (IL-29) secretion at the basolateral pole [8]: significant, but less marked, increase
